Tests used:
barnyardgrass [1] = assay: Test B flooded paddy test; type: in vivo, Echinochloa crus-galli; conditions: scale 0 to 100 (0 no effect, 100 complete control)
Summary of the method: (§1)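 After treating 2-leaf paddy plants or 2–18 cm postemergence plants (1 to 4 leaves) with formulated chemical, researchers kept them in a greenhouse for 13–15 days. Effects were judged visually versus controls: 0 indicates none, 100 total control.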

pigweed = assay: Test B pre-/postemergence herbicide test; type: in vivo, Amaranthus retroflexus; conditions: for Plant response rating (0 to 100 scale), Pigweed: 0 is no effect, 100 is complete control, preemergence
Summary of the method: (§2)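 Plants compared with untreated controls 13–15 days post-treatment and given a visual 0–100 injury score. Applications: preemergence to seeds; postemergence at 1- to 4-leaf (2–18 cm); paddy species flooded, 2-leaf stage. Vehicle non-phytotoxic, surfactant included.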

ducksalad = assay: Test B flooded paddy test; type: in vivo, Heteranthera limosa; conditions: scale 0 to 100 (0 no effect, 100 complete control)
Summary of the method: as §1

[2] = system: small flower umbrella sedge; assay: Test B flooded paddy test; type: in vivo, Cyperus difformis; conditions: scale 0 to 100 (0 no effect, 100 complete control)
Summary of the method: as §1

rice = assay: Test B flooded paddy test; type: in vivo, Oryza sativa; conditions: scale 0 to 100 (0 no effect, 100 complete control)
Summary of the method: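 Formulated test chemicals went onto postemergence plants measuring 2 to 18 cm, at one to four leaves. For the paddy assay, species had reached two leaves. Scoring took place 13–15 days later by eye, relative to untreated plants, using 0 for no effect up to 100 for full control.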

velvetleaf = assay: Test B pre-/postemergence herbicide test; type: in vivo, Abutilon theophrasti; conditions: for Plant response rating (0 to 100 scale), Velvetleaf: 0 is no effect, 100 is complete control, preemergence
Summary of the method: as §2

wheat = assay: Test B postemergence herbicide test; type: in vivo, Triticum aestivum; parameters: key to Wheat plant response rating: 0 = no effect, 100 = complete control
Summary of the method: (§3)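 Visual ratings, 0 (no effect) to 100 (complete control), made versus controls after 13–15 d greenhouse. Paddy plants treated at 2-leaf stage; postemergence plants at 1- to 4-leaf stage, 2–18 cm tall.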

cocklebur = assay: Test B pre-/postemergence herbicide test; type: in vivo, Xanthium strumarium; conditions: for Plant response rating (0 to 100 scale), Cocklebur: 0 is no effect, preemergence
Summary of the method: (§4)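 Flooded paddy rice and barnyardgrass were treated at the 2-leaf stage; upland plantings received compound either on sown seed or on 1- to 4-leaf seedlings. All were kept 13–15 days in a greenhouse and scored visually, 0–100, relative to untreated plants.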

corn = assay: Test B pre-/postemergence herbicide test; type: in vivo, Zea mays; conditions: for Plant response rating (0 to 100 scale), Corn: 0 is no effect, preemergence
Summary of the method: as §2

Surinam grass = assay: Test B pre-/postemergence herbicide test; type: in vivo, Urochloa decumbens; conditions: for Plant response rating (0 to 100 scale), Surinam Grass: 0 is no effect, 100 is complete control, preemergence
Summary of the method: as §2

barnyardgrass [3] = assay: Test B pre-/postemergence herbicide test; type: in vivo, Echinochloa crus-galli; conditions: for Plant response rating (0 to 100 scale), Barnyardgrass: 0 is no effect, preemergence
Summary of the method: as §4

wild oat = assay: Test B postemergence herbicide test; type: in vivo, Avena fatua
Summary of the method: as §3

blackgrass = assay: Test B postemergence herbicide test; type: in vivo, Alopecurus myosuroides
Summary of the method: as §1

giant foxtail = assay: Test B pre-/postemergence herbicide test; type: in vivo, Setaria faberi; conditions: for Plant response rating (0 to 100 scale), Foxtail, Giant: 0 is no effect, preemergence
Summary of the method: as §2

lambsquarters = assay: Test B pre-/postemergence herbicide test; type: in vivo, Chenopodium album
Summary of the method: as §2

large crabgrass = assay: Test B pre-/postemergence herbicide test; type: in vivo, Digitaria sanguinalis; conditions: for Plant response rating (0 to 100 scale), Crabgrass, Large: 0 is no effect, preemergence
Summary of the method: as §2

morningglory = assay: Test B pre-/postemergence herbicide test; type: in vivo, Ipomoea coccinea; conditions: for Plant response rating (0 to 100 scale), Morningglory: 0 is no effect, 100 is complete control, preemergence
Summary of the method: as §4

[4] = 125 g ai/ha, visual rating, scale 0 (no effect) to 100 (complete control), postemergence
[5] = 500 g ai/ha, scale 0 to 100, 0 no effect, 100 complete control, preemergence
[6] = 125 g ai/ha, 100 is complete control
[7] = postemergence, 500 g ai/ha, scale 0 to 100, 0 is no effect, 100 is complete control
[8] = Postemergence, 500 g ai/ha, scale 0 (no effect) to 100 (complete control)
[9] = postemergence, 125 g ai/ha, scale 0 to 100
[10] = Postemergence, 125 g ai/ha, scale 0 (no effect) to 100 (complete control)
[11] = postemergence, 16 g ai/ha, scale 0 to 100
[12] = postemergence, 62 g ai/ha, scale 0 to 100

CCc1nn(C(C)(C)C)nc1C(=O)Nc1cc(C(=O)N2CC=CC2)ccc1F [Compound 363]
20: Pigweed plant response rating (pigweed; [4]) | Cocklebur plant response rating (cocklebur; [4]) | Oat, Wild plant response rating (wild oat; [4]) | Blackgrass plant response rating (blackgrass; [4]) | Plant response rating (0 to 100 scale), Foxtail, Giant (giant foxtail; [6]) | Plant response rating (0 to 100 scale), Crabgrass, Large (large crabgrass; [6])
50: Morningglory plant response rating (morningglory; [4])
80: Sedge, Umbrella plant response rating ([2]; 1000 g ai/ha)
90: Ducksalad plant response rating (ducksalad; 1000 g ai/ha)
60: Barnyardgrass plant response rating (barnyardgrass [1]; 1000 g ai/ha) | Rice plant response rating (rice; 1000 g ai/ha)
30: Wheat plant response rating (wheat; [5]) | Cocklebur plant response rating (cocklebur; [7]) | Lambsquarters plant response rating (lambsquarters; [4])
70: Blackgrass plant response rating (blackgrass; [7])
10: Velvetleaf plant response rating (velvetleaf; [4]) | Wheat plant response rating (wheat; [4]) | Surinam Grass plant response rating (Surinam grass; [4]) | Foxtail, Giant plant response rating (giant foxtail; [4]) | Foxtail, Giant plant response rating (giant foxtail; [7]) | Crabgrass, Large plant response rating (large crabgrass; [4]) | Crabgrass, Large plant response rating (large crabgrass; [7])
0: Plant response rating (0 to 100 scale), Pigweed (pigweed; 125 g ai/ha) | Plant response rating (0 to 100 scale), Velvetleaf (velvetleaf; 125 g ai/ha) | Plant response rating (0 to 100 scale), Cocklebur (cocklebur; [6]) | Plant response rating (0 to 100 scale), Corn (corn; [6]) | Corn plant response rating (corn; [4]) | Corn plant response rating (corn; [7]) | Plant response rating (0 to 100 scale), Surinam Grass (Surinam grass; 125 g ai/ha) | Plant response rating (0 to 100 scale), Barnyardgrass (barnyardgrass [3]; [6]) | Barnyardgrass plant response rating (barnyardgrass [3]; [4]) | Barnyardgrass plant response rating (barnyardgrass [3]; [7]) | Plant response rating (0 to 100 scale), Lambsquarters (lambsquarters; 125 g ai/ha, 0 is no effect, 100 is complete control, preemergence) | Plant response rating (0 to 100 scale), Morningglory (morningglory; 125 g ai/ha)

CCNC(=O)c1cccc(NC(=O)c2nn(C(C)(C)C)nc2C)n1 [Compound 437]
10: Cocklebur plant response rating (cocklebur; [9])
30: Pigweed plant response rating (pigweed; [8]) | Cocklebur plant response rating (cocklebur; [8]) | Corn plant response rating (corn; [8]) | Barnyardgrass plant response rating (barnyardgrass [3]; [8]) | Oat, Wild plant response rating (wild oat; [8]) | Blackgrass plant response rating (blackgrass; [8]) | Foxtail, Giant plant response rating (giant foxtail; [8]) | Morningglory plant response rating (morningglory; [8])
0: Barnyardgrass plant response rating (barnyardgrass [1]; 125 g ai/ha) | Ducksalad plant response rating (ducksalad; 125 g ai/ha) | Sedge, Umbrella plant response rating ([2]; 125 g ai/ha) | Rice plant response rating (rice; 125 g ai/ha) | Velvetleaf plant response rating (velvetleaf; [9]) | Wheat plant response rating (wheat; [5]) | Corn plant response rating (corn; [9]) | Surinam Grass plant response rating (Surinam grass; [9]) | Barnyardgrass plant response rating (barnyardgrass [3]; [10]) | Blackgrass plant response rating (blackgrass; [9]) | Foxtail, Giant plant response rating (giant foxtail; [9]) | Crabgrass, Large plant response rating (large crabgrass; [9]) | Morningglory plant response rating (morningglory; [9])
20: Pigweed plant response rating (pigweed; [9]) | Velvetleaf plant response rating (velvetleaf; [8]) | Wheat plant response rating (wheat; [8]) | Surinam Grass plant response rating (Surinam grass; [8]) | Lambsquarters plant response rating (lambsquarters; [9]) | Crabgrass, Large plant response rating (large crabgrass; [8])
40: Lambsquarters plant response rating (lambsquarters; [8])

CCn1nc(C(C)(C)C)cc1C(=O)Nc1cc(C(=O)NC)c(F)cc1F [Compound 251]
30: Ducksalad plant response rating (ducksalad; 1000 g ai/ha)
20: Wheat plant response rating (wheat; [11]) | Wheat plant response rating (wheat; [12]) | Oat, Wild plant response rating (wild oat; [11]) | Oat, Wild plant response rating (wild oat; [12])
40: Sedge, Umbrella plant response rating ([2]; 1000 g ai/ha) | Rice plant response rating (rice; 1000 g ai/ha)
50: Blackgrass plant response rating (blackgrass; [12])
10: Pigweed plant response rating (pigweed; [12]) | Velvetleaf plant response rating (velvetleaf; [12]) | Blackgrass plant response rating (blackgrass; [11]) | Lambsquarters plant response rating (lambsquarters; [12])
0: Barnyardgrass plant response rating (barnyardgrass [1]; 1000 g ai/ha) | Pigweed plant response rating (pigweed; [11]) | Velvetleaf plant response rating (velvetleaf; [11]) | Cocklebur plant response rating (cocklebur; [11]) | Cocklebur plant response rating (cocklebur; [12]) | Corn plant response rating (corn; [11]) | Corn plant response rating (corn; [12]) | Surinam Grass plant response rating (Surinam grass; [11]) | Surinam Grass plant response rating (Surinam grass; [12]) | Barnyardgrass plant response rating (barnyardgrass [3]; [11]) | Barnyardgrass plant response rating (barnyardgrass [3]; [12]) | Foxtail, Giant plant response rating (giant foxtail; [11]) | Foxtail, Giant plant response rating (giant foxtail; [12]) | Lambsquarters plant response rating (lambsquarters; [11]) | Crabgrass, Large plant response rating (large crabgrass; [11]) | Crabgrass, Large plant response rating (large crabgrass; [12]) | Morningglory plant response rating (morningglory; [11]) | Morningglory plant response rating (morningglory; [12])

CCc1nn(C(C)(C)CC)nc1C(=O)Nc1cc(C(=O)N2CC=CC2)ccc1F [Compound 371]
30: Barnyardgrass plant response rating (barnyardgrass [1]; 1000 g ai/ha) | Pigweed plant response rating (pigweed; [8]) | Cocklebur plant response rating (cocklebur; [7])
90: Ducksalad plant response rating (ducksalad; 1000 g ai/ha)
10: Pigweed plant response rating (pigweed; [4]) | Velvetleaf plant response rating (velvetleaf; [4]) | Wheat plant response rating (wheat; [8]) | Corn plant response rating (corn; [4]) | Corn plant response rating (corn; [7]) | Plant response rating (0 to 100 scale), Surinam Grass (Surinam grass; 125 g ai/ha) | Surinam Grass plant response rating (Surinam grass; [8]) | Oat, Wild plant response rating (wild oat; [8]) | Plant response rating (0 to 100 scale), Foxtail, Giant (giant foxtail; [6]) | Foxtail, Giant plant response rating (giant foxtail; [4]) | Plant response rating (0 to 100 scale), Crabgrass, Large (large crabgrass; [6]) | Crabgrass, Large plant response rating (large crabgrass; [7])
60: Sedge, Umbrella plant response rating ([2]; 1000 g ai/ha)
40: Rice plant response rating (rice; 1000 g ai/ha) | Lambsquarters plant response rating (lambsquarters; [4]) | Morningglory plant response rating (morningglory; [4])
20: Velvetleaf plant response rating (velvetleaf; [8]) | Cocklebur plant response rating (cocklebur; [4]) | Blackgrass plant response rating (blackgrass; [7]) | Foxtail, Giant plant response rating (giant foxtail; [7])
70: Lambsquarters plant response rating (lambsquarters; [8]) | Morningglory plant response rating (morningglory; [8])
0: Plant response rating (0 to 100 scale), Pigweed (pigweed; 125 g ai/ha) | Plant response rating (0 to 100 scale), Velvetleaf (velvetleaf; 125 g ai/ha) | Wheat plant response rating (wheat; [4]) | Wheat plant response rating (wheat; [5]) | Plant response rating (0 to 100 scale), Cocklebur (cocklebur; [6]) | Plant response rating (0 to 100 scale), Corn (corn; [6]) | Surinam Grass plant response rating (Surinam grass; [4]) | Plant response rating (0 to 100 scale), Barnyardgrass (barnyardgrass [3]; [6]) | Barnyardgrass plant response rating (barnyardgrass [3]; [4]) | Barnyardgrass plant response rating (barnyardgrass [3]; [7]) | Oat, Wild plant response rating (wild oat; [4]) | Blackgrass plant response rating (blackgrass; [4]) | Crabgrass, Large plant response rating (large crabgrass; [4]) | Plant response rating (0 to 100 scale), Morningglory (morningglory; 125 g ai/ha)

C=CCNC(=O)c1cccc(NC(=O)c2nn(C(C)(C)C)nc2C)n1 [Compound 438]
50: Morningglory plant response rating (morningglory; [8])
0: Barnyardgrass plant response rating (barnyardgrass [1]; 125 g ai/ha) | Ducksalad plant response rating (ducksalad; 125 g ai/ha) | Sedge, Umbrella plant response rating ([2]; 125 g ai/ha) | Rice plant response rating (rice; 125 g ai/ha) | Velvetleaf plant response rating (velvetleaf; [9]) | Wheat plant response rating (wheat; [5]) | Surinam Grass plant response rating (Surinam grass; [8]) | Surinam Grass plant response rating (Surinam grass; [9]) | Barnyardgrass plant response rating (barnyardgrass [3]; [10]) | Barnyardgrass plant response rating (barnyardgrass [3]; [8]) | Foxtail, Giant plant response rating (giant foxtail; [9]) | Crabgrass, Large plant response rating (large crabgrass; [8]) | Crabgrass, Large plant response rating (large crabgrass; [9])
20: Wheat plant response rating (wheat; [9]) | Cocklebur plant response rating (cocklebur; [8]) | Cocklebur plant response rating (cocklebur; [9]) | Blackgrass plant response rating (blackgrass; [9]) | Foxtail, Giant plant response rating (giant foxtail; [8])
10: Pigweed plant response rating (pigweed; [9]) | Lambsquarters plant response rating (lambsquarters; [8]) | Lambsquarters plant response rating (lambsquarters; [9])
30: Pigweed plant response rating (pigweed; [8]) | Velvetleaf plant response rating (velvetleaf; [8]) | Wheat plant response rating (wheat; [8]) | Corn plant response rating (corn; [9]) | Oat, Wild plant response rating (wild oat; [9]) | Blackgrass plant response rating (blackgrass; [8])
40: Corn plant response rating (corn; [8]) | Oat, Wild plant response rating (wild oat; [8]) | Morningglory plant response rating (morningglory; [9])
